tested on: IL-12 induced STAT4 phosphorylation mediated by TYK2/JAK2; experiment: IL-12 induced pSTAT4 in human PBMC; assay type: cell-based; settings: 1 hr compound, 1.7 ng/mL IL-12 for 30 minutes
Experimental: Human PBMC were isolated from buffy coat and are stored frozen for assays as needed. […] 15 μL of compound or DMSO was added to the well at the desired concentrations and incubated at 1 hr at 37° C. 15 μL of stimulus (final concentration of 1.7 ng/mL IL-12) was added for 30 minutes prior to pSTAT4 and total STAT4 analysis using cell lysates prepared and analyzed by MSD reagents as per manufacturer protocol. The final DMSO concentration of compound in the assay was 0.1%. The IL-12 induced pSTAT4 assay evaluates the inhibition of IL-12 induced STAT4 phosphorlyation mediated by TYK2/JAK2 ([…] complex).

IC50, < 0.1 µM:
CNc1cc(Nc2cccn(C3CCN(CCF)CC3)c2=O)nc2c(C(=O)NC3CC[C@@H]3F)cnn12 (stereo partly shown) [Compound I-236]
CNc1cc(Nc2cccn(C3CCN(CCF)CC3)c2=O)nc2c(C(=O)N[C@H]3CC[C@@H]3F)cnn12 [Compound I-237]
CNc1cc(Nc2cccn([C@H]3CC[C@@H]3OC)c2=O)nc2c(C(=O)NC3CC[C@H]3O)cnn12 (stereo partly shown) [Compound I-239]
CNc1cc(Nc2cccn([C@H]3CC[C@@H]3OC)c2=O)nc2c(C(=O)N[C@H]3CC[C@H]3O)cnn12 [Compound I-240]
CNc1cc(Nc2cccn([C@@H]3CC[C@H]3OC)c2=O)nc2c(C(=O)N[C@H]3CC[C@H]3O)cnn12 [Compound I-243]
CNc1cc(Nc2cccn([C@H]3C[C@@H](OC)C3)c2=O)nc2c(C(=O)N[C@H]3CC[C@@H]3OC)cnn12 [Compound I-253]
CNc1cc(Nc2cccn([C@H]3C[C@H](OC)C3)c2=O)nc2c(C(=O)N[C@H]3CC[C@@H]3OC)cnn12 [Compound I-255]
CNc1cc(Nc2cccn([C@H]3CCC[C@@H](C#N)C3)c2=O)nc2c(C(=O)N[C@@H]3CC[C@H]3OC)cnn12 [Compound I-258]
CNc1cc(Nc2cccn([C@@H]3CCC[C@H](C#N)C3)c2=O)nc2c(C(=O)N[C@@H]3CC[C@H]3OC)cnn12 [Compound I-260]
CNc1cc(Nc2cccn([C@H]3[C@@H]4COC[C@@H]43)c2=O)nc2c(C(=O)N[C@@H]3CC[C@H]3OC)cnn12 [Compound I-262]
CNc1cc(Nc2cccn(-c3ccccn3)c2=O)nc2c(C(=O)N[C@@H]3CC[C@H]3OC)cnn12 [Compound I-264]
CNc1cc(Nc2cccn(-c3ncccc3F)c2=O)nc2c(C(=O)NC3CC[C@H]3OC)cnn12 (stereo partly shown) [Compound I-265]
CNc1cc(Nc2cccn(-c3ncccc3F)c2=O)nc2c(C(=O)N[C@@H]3CC[C@H]3OC)cnn12 [Compound I-266]
CNc1cc(Nc2cccn([C@@H]3C[C@H]3F)c2=O)nc2c(C(=O)NC3CCC3(F)F)cnn12 (stereo partly shown) [Compound I-274]
CNc1cc(Nc2cccn([C@@H]3C[C@H]3F)c2=O)nc2c(C(=O)N[C@@H]3CCC3(F)F)cnn12 [Compound I-276]
CNc1cc(Nc2cccn([C@H]3C[C@@H]3F)c2=O)nc2c(C(=O)NC3CCC3(F)F)cnn12 (stereo partly shown) [Compound I-277]
CNc1cc(Nc2cccn([C@H]3C[C@@H]3F)c2=O)nc2c(C(=O)N[C@@H]3CCC3(F)F)cnn12 [Compound I-279]
CNc1cc(Nc2cccn(C3COC3)c2=O)nc2c(C(=O)NC3CCC3(F)F)cnn12 (stereo not shown) [Compound I-280]
CNc1cc(Nc2cccn(C3COC3)c2=O)nc2c(C(=O)N[C@@H]3CCC3(F)F)cnn12 [Compound I-282]
CNc1cc(Nc2cccn([C@H]3C[C@H](F)C3)c2=O)nc2c(C(=O)NC3CCC3(F)F)cnn12 (stereo partly shown) [Compound I-283]
CNc1cc(Nc2cccn([C@H]3C[C@H](F)C3)c2=O)nc2c(C(=O)N[C@@H]3CCC3(F)F)cnn12 [Compound I-285]
CNc1cc(Nc2cccn([C@H]3CC[C@H]3O)c2=O)nc2c(C(=O)NC3CCC3(F)F)cnn12 (stereo partly shown) [Compound I-286]
CNc1cc(Nc2cccn([C@H]3CC[C@H]3O)c2=O)nc2c(C(=O)N[C@H]3CCC3(F)F)cnn12 [Compound I-287]
CNc1cc(Nc2cccn([C@@H]3CC[C@@H]3O)c2=O)nc2c(C(=O)N[C@H]3CCC3(F)F)cnn12 [Compound I-290]
CNc1cc(Nc2cccn([C@H]3C[C@H](OC)C3)c2=O)nc2c(C(=O)NC3CCC3(F)F)cnn12 (stereo partly shown) [Compound I-292]
CNc1cc(Nc2cccn([C@H]3C[C@H](OC)C3)c2=O)nc2c(C(=O)N[C@H]3CCC3(F)F)cnn12 [Compound I-293]
CNc1cc(Nc2cccn([C@H]3C[C@@H](OC)C3)c2=O)nc2c(C(=O)NC3CCC3(F)F)cnn12 (stereo partly shown) [Compound I-295]
CNc1cc(Nc2cccn([C@H]3C[C@@H](OC)C3)c2=O)nc2c(C(=O)N[C@H]3CCC3(F)F)cnn12 [Compound I-296]
CNc1cc(Nc2cccn([C@@H]3CCC[C@@H]3O)c2=O)nc2c(C(=O)NC3CCC3(F)F)cnn12 (stereo partly shown) [Compound I-303]
CNc1cc(Nc2cccn([C@@H]3CCC[C@@H]3O)c2=O)nc2c(C(=O)N[C@@H]3CCC3(F)F)cnn12 [Compound I-305]
CNc1cc(Nc2cccn([C@H]3[C@@H]4COC[C@@H]43)c2=O)nc2c(C(=O)NC3CCC3(F)F)cnn12 (stereo partly shown) [Compound I-306]
CNc1cc(Nc2cccn([C@H]3[C@@H]4COC[C@@H]43)c2=O)nc2c(C(=O)N[C@H]3CCC3(F)F)cnn12 [Compound I-307]
CNc1cc(Nc2cccn(C3CCOCC3)c2=O)nc2c(C(=O)NC3CCC3(F)F)cnn12 (stereo not shown) [Compound I-309]
CNc1cc(Nc2cccn(C3CCOCC3)c2=O)nc2c(C(=O)N[C@@H]3CCC3(F)F)cnn12 [Compound I-311]
CNc1cc(Nc2cccn([C@H]3CCCOC3)c2=O)nc2c(C(=O)NC3CCC3(F)F)cnn12 (stereo partly shown) [Compound I-312]
CNc1cc(Nc2cccn([C@H]3CCCOC3)c2=O)nc2c(C(=O)N[C@@H]3CCC3(F)F)cnn12 [Compound I-314]
CNc1cc(Nc2cccn([C@@H]3CCCOC3)c2=O)nc2c(C(=O)NC3CCC3(F)F)cnn12 (stereo partly shown) [Compound I-315]
CNc1cc(Nc2cccn([C@@H]3CCCOC3)c2=O)nc2c(C(=O)N[C@@H]3CCC3(F)F)cnn12 [Compound I-317]
CNc1cc(Nc2cccn(-c3ccccn3)c2=O)nc2c(C(=O)NC3CCC3(F)F)cnn12 (stereo not shown) [Compound I-318]
CNc1cc(Nc2cccn(-c3ccccn3)c2=O)nc2c(C(=O)N[C@@H]3CCC3(F)F)cnn12 [Compound I-320]
CNc1cc(Nc2cccn(-c3ccc(C)nc3)c2=O)nc2c(C(=O)NC3CCC3(F)F)cnn12 (stereo not shown) [Compound I-324]
CNc1cc(Nc2cccn(-c3ccc(C)nc3)c2=O)nc2c(C(=O)N[C@H]3CCC3(F)F)cnn12 [Compound I-325]
CNc1cc(Nc2cccn([C@@H]3CCC[C@H](C#N)C3)c2=O)nc2c(C(=O)NC3CCC3(F)F)cnn12 (stereo partly shown) [Compound I-327]
CNc1cc(Nc2cccn([C@@H]3CCC[C@H](C#N)C3)c2=O)nc2c(C(=O)N[C@H]3CCC3(F)F)cnn12 [Compound I-328]
CNc1cc(Nc2cccn([C@H]3CCC[C@@H](C#N)C3)c2=O)nc2c(C(=O)NC3CCC3(F)F)cnn12 (stereo partly shown) [Compound I-330]
CNc1cc(Nc2cccn([C@H]3CCC[C@@H](C#N)C3)c2=O)nc2c(C(=O)N[C@H]3CCC3(F)F)cnn12 [Compound I-331]
CNc1cc(Nc2cccn([C@@H]3CCOC[C@@H]3OC)c2=O)nc2c(C(=O)NC3CCC3(F)F)cnn12 (stereo partly shown) [Compound I-336]
CNc1cc(Nc2cccn([C@@H]3CCOC[C@@H]3OC)c2=O)nc2c(C(=O)N[C@@H]3CCC3(F)F)cnn12 [Compound I-338]
CNc1cc(Nc2cccn(C(C)C)c2=O)nc2c(C(=O)NC3CC[C@]3(C)O)cnn12 (stereo partly shown) [Compound I-339]
CNc1cc(Nc2cccn(C(C)C)c2=O)nc2c(C(=O)N[C@@H]3CC[C@@]3(C)O)cnn12 [Compound I-341]
CNc1cc(Nc2cccn(C3CCOCC3)c2=O)nc2c(C(=O)NC3CC[C@]3(C)O)cnn12 (stereo partly shown) [Compound I-348]
CNc1cc(Nc2cccn(C3CCOCC3)c2=O)nc2c(C(=O)N[C@H]3CC[C@]3(C)O)cnn12 [Compound I-349]
CNc1cc(Nc2cccn([C@H]3CC[C@@H]3O)c2=O)nc2c(C(=O)N[C@@H]3CC[C@@]3(C)OC)cnn12 [Compound I-377]
CNc1cc(Nc2cccn([C@H]3CCC[C@H]3O)c2=O)nc2c(C(=O)NC3CC[C@]3(C)OC)cnn12 (stereo partly shown) [Compound I-390]
CNc1cc(Nc2cccn([C@H]3CCC[C@H]3O)c2=O)nc2c(C(=O)N[C@H]3CC[C@]3(C)OC)cnn12 [Compound I-391]
CNc1cc(Nc2cccn(C3CCOCC3)c2=O)nc2c(C(=O)NC3CC[C@@]3(C)OC)cnn12 (stereo partly shown) [Compound I-405]
CNc1cc(Nc2cccn(C3CCOCC3)c2=O)nc2c(C(=O)N[C@H]3CC[C@]3(C)OC)cnn12 [Compound I-407]
CNc1cc(Nc2cccn([C@H]3[C@@H]4COC[C@@H]43)c2=O)nc2c(C(=O)N[C@@H]3CC[C@@]3(C)OC)cnn12 [Compound I-410]
CNc1cc(Nc2cccn(-c3ncccc3F)c2=O)nc2c(C(=O)NC3CC[C@@]3(C)OC)cnn12 (stereo partly shown) [Compound I-414]
CNc1cc(Nc2cccn(-c3ncccc3F)c2=O)nc2c(C(=O)N[C@@H]3CC[C@@]3(C)OC)cnn12 [Compound I-415]
CNc1cc(Nc2cccn([C@H]3CCCC[C@H]3O)c2=O)nc2c(C(=O)NC3CC[C@]3(C)OC)cnn12 (stereo partly shown) [Compound I-423]
CNc1cc(Nc2cccn([C@H]3CCCC[C@H]3O)c2=O)nc2c(C(=O)N[C@H]3CC[C@]3(C)OC)cnn12 [Compound I-424]
CNc1cc(Nc2cccn([C@H]3CC[C@H](OC)CC3)c2=O)nc2c(C(=O)N[C@@H]3CC[C@@]3(C)OC)cnn12 [Compound I-428]
CNc1cc(Nc2cccn([C@H]3CC[C@@H](OC)CC3)c2=O)nc2c(C(=O)N[C@@H]3CC[C@@]3(C)OC)cnn12 [Compound I-431]

— patent US12221453B2, “Substituted pyrazolo[5′,1′:2,3]pyrimido[5,4-b][1,4]oxazines as TYK2 inhibitors” (TAKEDA PHARMACEUTICAL COMPANY LIMITED, priority 2018, dated 2025)
